This passage reports EC50 and IC50 results from patent US7468375B2 (Pfizer Inc., priority 2004, dated 2008).

The subject of assay [1] is RF strain of HIV-1 in CEM-SS cells. As to the kind of experiment: HIV-1 cell protection assay (XTT dye reduction). The conditions noted are these: Human immunodeficiency virus 1, CEM-SS, 144 h, HIV-1 RF, CEM-SS cells, XTT dye reduction, six days; read-out: EC50. It is filed as cell-based. The gist of the method:
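CEM-SS cells infected with HIV-1 RF (moi 0.025–0.819) or mock-infected, 2×10^4 cells/well with half-log compound dilutions for six days. Viability by XTT/PMS reduction (4 h), absorbance 450 nm, as % of uninfected untreated cells. Therapeutic index = CC50/EC50.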
In general terms: Formazan colour is commonly taken as a measure of viable cells.

In assay [2] the target is T1, Full-length wild type HIV-1 integrase (SF1) (Human immunodeficiency virus type 1 group M subtype B, UniProt P04585).
T1 construct: made in house; host or cells: E. coli BL21 (DE3)
As to the kind of experiment: Integrase strand-transfer scintillation proximity assay. It is filed as biochemical. As to conditions: 50 min at 37° C., 246 nM integrase, 50 nM host DNA. The gist of the method:
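Recombinant full-length wild-type HIV-1 integrase (aa 1-288), E. coli-expressed, tested on biotinylated pre-processed U5 LTR viral ds-DNA with CA overhang bound to streptavidin SPA beads. [3H]-thymidine-labelled host ds-DNA serves as target; strand transfer read by scintillation proximity. A 3′ di-deoxy viral DNA control checks non-specific binding.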
Background: In a scintillation proximity assay essentially only radioactivity close to the scintillant gives light.

[3] abbreviates: strand transfer, read-out: IC50.

The term EC50 denotes the concentration at which the effect is half-maximal. For orientation: IC50 means the concentration that inhibits the measured activity by half.

Read-outs that look alike come from different tables or passages of the source.

In the case of `C=CCONC(=O)c1cc2c(CN3CCNC(=O)C3)cn(Cc3ccc(F)cc3)c2cn1` [Example 103, N-(Allyloxy)-1-(4-fluorobenzyl)-3-[(3-oxopiperazin-1-yl)methyl]-1H-pyrrolo[2,3-c]pyridine-5-carboxamide], the EC50 in assay [1] was 130 nM. For the same compound, in assay [2] (setting [3]), the half-inhibitory concentration (IC50) came to 702 nM.
As to `O=C(NO)c1cc2c(CNC3CCS(=O)(=O)C3)cn(Cc3ccc(F)cc3F)c2cn1` (centres unmarked) [Example 12, 1-(2,4-Difluorobenzyl)-3-{[(1,1-dioxidotetrahydrothien-3-yl)amino]methyl}-N-hydroxy-1H-pyrrolo[2,3-c]pyridine-5-carboxamide], the EC50 in assay [1] is 19 nM. The IC50 in assay [2] (setting [3]) was 36 nM.
For `O=C(NO)c1cc2ccn(Cc3ccc(F)cc3F)c2cn1` [Example 1, 1-(2,4-Difluorobenzyl)-N-hydroxy-1H-pyrrolo[2,3-c]pyridine-5-carboxamide], in that order: 7.95 nM and 84 nM.
On to `Cc1nnc(CCNCc2cn(Cc3ccc(F)cc3F)c3cnc(C(=O)NO)cc23)[nH]1` [Example 100, 1-(2,4-Difluorobenzyl)-N-hydroxy-3-({[2-(5-methyl-4H-1,2,4-triazol-3-yl)ethyl]amino}methyl)-1H-pyrrolo[2,3-c]pyridine-5-carboxamide], for which the EC50 in assay [1] stood at 10000 nM. In assay [2] (setting [3]), the concentration for half-maximal inhibition (IC50) is 270 nM.
Take `CN(O)C(=O)c1cc2cnn(Cc3ccc(F)cc3)c2cn1` [Example 36, 1-(4-Fluorobenzyl)-N-hydroxy-N-methyl-1H-pyrazolo[3,4-c]pyridine-5-carboxamide]: in assay [1], the EC50 came out at 390 nM. In addition, the IC50 in assay [2] (setting [3]) came to 811 nM.
`CC(C)C(CO)NCc1cn(Cc2ccc(F)cc2F)c2cnc(C(=O)NO)cc12` (centres unmarked) [Example 78, 1-(2,4-Difluorobenzyl)-N-hydroxy-3-({[1-(hydroxymethyl)-2-methylpropyl]amino}methyl)-1H-pyrrolo[2,3-c]pyridine-5-carboxamide]: the EC50 in assay [1] worked out at 83 nM. Moreover, the IC50 in assay [2] (setting [3]) turned out to be 571 nM.
For `O=C(NO)c1cc2c(CNCc3ccc(F)cc3)cn(Cc3ccc(F)cc3F)c2cn1` [Example 70, 1-(2,4-Difluorobenzyl)-3-{[(4-fluorobenzyl)amino]methyl}-N-hydroxy-1H-pyrrolo[2,3-c]pyridine-5-carboxamide], in that order: 22 nM and 332 nM.
In the same order, the values of `O=C(NO)c1cc2c(CNC3CCOCC3)cn(Cc3ccc(F)cc3F)c2cn1` [Example 91, 1-(2,4-Difluorobenzyl)-N-hydroxy-3-[(tetrahydro-2H-pyran-4-ylamino)methyl]-1H-pyrrolo[2,3-c]pyridine-5-carboxamide] are 28 nM and 519 nM.
For `COc1c(C(=O)N(C)O)ncc2c1ccn2Cc1ccc(F)cc1` [Example 44, 1-(4-Fluorobenzyl)-N-hydroxy-4-methoxy-N-methyl-1H-pyrrolo[2,3-c]pyridine-5-carboxamide], the EC50 in assay [1] was 1200 nM. Besides, the IC50 in assay [2] (setting [3]) amounted to 2250 nM.
Consider `O=C(NO)c1cc2c(COC[C@@H](O)CO)cn(Cc3ccc(F)cc3F)c2cn1` [Example 106], for which the EC50 in assay [1] is 66.3 nM. Also, the IC50 in assay [2] (setting [3]) was determined as 12 nM.
As to `O=C(NO)c1cc2ncn(Cc3cccc(F)c3F)c2cn1` [Example 24, 3-(2,3-Difluoro-benzyl)-N-hydroxy-3H-imidazo[4,5-c]pyridine-6-carboxamide], the EC50 in assay [1] came to 110 nM. For the same compound, in assay [2] (setting [3]), the IC50 worked out at 1040 nM.
For `CN1CCN(Cc2cn(Cc3ccc(F)cc3F)c3cnc(C(=O)NO)cc23)CC1` [Example 5, 1-(2,4-Difluorobenzyl)-N-hydroxy-3-[(4-methylpiperazin-1-yl)methyl]-1H pyrrolo[2,3-c]pyridine-5-carboxamide], in that order: 13 nM and 153 nM.
For `CC(CO)NCc1cn(Cc2ccc(F)cc2F)c2cnc(C(=O)NO)cc12` (centres unmarked) [Example 53, 1-(2,4-Difluorobenzyl)-N-hydroxy-3-{[(2-hydroxy-1-methylethyl)amino]methyl}-1H-pyrrolo[2,3-c]pyridine-5-carboxamide], the EC50 in assay [1] came to 11 nM. In addition, the IC50 in assay [2] (setting [3]) is 359 nM.
As for `O=C(NO)c1cc2c(cn1)c(C(O)c1ccc(F)cc1)cn2Cc1ccc(F)cc1` (centres unmarked) [Example 31, 1-(4-Fluorobenzyl)-3-[(4-fluorophenyl)(hydroxy)methyl]-N-hydroxy-1H pyrrolo[3,2-c]pyridine-6-carboxamide], in assay [1], the EC50 was 14 nM. In addition, the IC50 in assay [2] (setting [3]) was determined as 186 nM.
For the compound `O=C(NO)c1cc2c(CNCc3n[nH]c4c3CCC4)cn(Cc3ccc(F)cc3F)c2cn1` [Example 99, 1-(2,4-Difluorobenzyl)-N-hydroxy-3-{[(1,4,5,6-tetrahydrocyclopenta[c]pyrazol-3-ylmethyl)amino]methyl}-1H-pyrrolo[2,3-c]pyridine-5-carboxamide], in assay [1], the EC50 amounted to 31 nM. Moreover, the half-maximal inhibitory concentration (IC50) in assay [2] (setting [3]) came to 277 nM.
For the compound `CC(O)CNCc1cn(Cc2ccc(F)cc2F)c2cnc(C(=O)NO)cc12` (centres unmarked) [Example 65, 1-(2,4-Difluorobenzyl)-N-hydroxy-3-{[(2-hydroxypropyl)amino]methyl}-1H-pyrrolo[2,3-c]pyridine-5-carboxamide], in assay [1], the concentration for a half-maximal effect (EC50) is 14 nM. Also, the IC50 in assay [2] (setting [3]) came to 625 nM.
In the same order, the values of `CC1CCCN1Cc1cn(Cc2ccc(F)cc2F)c2cnc(C(=O)NO)cc12` (centres unmarked) [Example 81, 1-(2,4-Difluorobenzyl)-N-hydroxy-3-[(2-methylpyrrolidin-1-yl)methyl]-1H-pyrrolo[2,3-c]pyridine-5-carboxamide] are 40 nM and 499 nM.
For `CC(C)(C)[C@@H](CO)NCc1cn(Cc2ccc(F)cc2F)c2cnc(C(=O)NO)cc12` [Example 87, 1-(2,4-Difluorobenzyl)-N-hydroxy-3-({[(1S)-1-(hydroxymethyl)-2,2-dimethylpropyl]amino}methyl)-1H-pyrrolo[2,3-c]pyridine-5-carboxamide], in that order: 67 nM and 814 nM.
For `CN(Cc1cccnc1)Cc1cn(Cc2ccc(F)cc2F)c2cnc(C(=O)NO)cc12` [Example 8, 1-(2,4-Difluorobenzyl)-N-hydroxy-3-{[methyl(pyridin-3-ylmethyl)amino]methyl}-1H-pyrrolo[2,3-c]pyridine-5-carboxamide], in that order: 52 nM and 45 nM.
With `CN(O)C(=O)c1cc2c(CN3CC[C@@H]4CNC(=O)[C@@H]4C3)cn(Cc3ccc(F)cc3F)c2cn1` (relative stereo) [Example 112], the EC50 in assay [1] amounted to 597 nM. Also, the IC50 in assay [2] (setting [3]) came to 62 nM.
For `O=C(NO)c1cc2c(CNCCc3ccc(F)cc3)cn(Cc3ccc(F)cc3F)c2cn1` [Example 85, 1-(2,4-Difluorobenzyl)-3-(J[2-(4-fluorophenyl)ethyl]aminomethyl)-N-hydroxy-1H-pyrrolo[2,3-c]pyridine-5-carboxamide], in that order: 33 nM and 224 nM.
Regarding `COCc1c(C(=O)NO)ncc2c1ccn2Cc1ccc(F)cc1F` [Example 19, 1-(2,4-Difluorobenzyl)-N-hydroxy-4-(methoxymethyl)-1-H-pyrrolo[2,3-c]pyridine-5-carboxamide], the EC50 in assay [1] turned out to be 48 nM. In addition, the half-maximal inhibitory concentration (IC50) in assay [2] (setting [3]) was 218 nM.
Regarding `O=C(NO)c1cc2c(CN[C@H](CO)Cc3ccccc3)cn(Cc3ccc(F)cc3F)c2cn1` [Example 64, 3-({[(1S)-1-Benzyl-2-hydroxyethyl]amino}methyl)-1-(2,4-difluorobenzyl)-N-hydroxy-1H-pyrrolo[2,3-c]pyridine-5-carboxamide], in assay [1], the EC50 was 17 nM. Also, in assay [2] (setting [3]), the IC50 was determined as 328 nM.
For the compound `O=C(NO)c1cc2c(COC[C@H](O)CO)cn(Cc3ccc(F)cc3F)c2cn1` [Example 107, 1-(2,4-Difluorobenzyl)-3-({[(2S)-2,3-dihydroxypropyl]oxy}methyl)-hydroxy-1H-pyrrolo[2,3-c]pyridine-5-carboxamide], the EC50 in assay [1] worked out at 32.2 nM. Besides, the IC50 in assay [2] (IC50, strand transfer) was found to be 3.4 nM.
For `C[C@@H](NCc1cn(Cc2ccc(F)cc2F)c2cnc(C(=O)NO)cc12)[C@@H](O)c1ccccc1` (stereo in doubt) [Example 86, 1-(2,4-Difluorobenzyl)-N-hydroxy-3-{[(2-hydroxy-1-methyl-2-phenylethyl)amino]methyl}-1H-pyrrolo[2,3-c]pyridine-5-carboxamide], in assay [1], the EC50 came out at 11 nM. For the same compound, the IC50 in assay [2] (setting [3]) was found to be 314 nM.
Turning to `O=C(NO)c1cc2c(CNc3cccnc3)cn(Cc3ccc(F)cc3F)c2cn1` [Example 11, 1-(2,4-Difluorobenzyl)-N-hydroxy-3-[(pyridin-3-ylamino)methyl]-1 pyrrolo[2,3-c]pyridine-5-carboxamide], in assay [1], the EC50 turned out to be 15 nM. Moreover, the IC50 in assay [2] (setting [3]) amounted to 37 nM.
On to `Cc1cccc(CNCc2cn(Cc3ccc(F)cc3F)c3cnc(C(=O)NO)cc23)c1` [Example 79, 1-(2,4-Difluorobenzyl)-N-hydroxy-3-{[(3-methylbenzyl)amino]methyl}-1H-pyrrolo[2,3-c]pyridine-5-carboxamide], for which the EC50 in assay [1] was 20 nM. The IC50 in assay [2] (setting [3]) was 243 nM.
In the case of `CCN(CCO)Cc1cn(Cc2ccc(F)cc2F)c2cnc(C(=O)NO)cc12` [Example 69, 1-(2,4-Difluorobenzyl)-3-{[ethyl(2-hydroxyethyl)amino]methyl}-N-hydroxy-1H-pyrrolo[2,3-c]pyridine-5-carboxamide], the EC50 in assay [1] worked out at 28 nM. Also, the IC50 in assay [2] (setting [3]) stood at 755 nM.
